Assay results: patent EP4603105A1, “PHARMACEUTICAL COMPOSITION CONTAINING CYCLIC COMPOUND HAVING SELECTIVE KRAS INHIBITORY EFFECT AGAINST HRAS AND NRAS” (CHUGAI SEIYAKU KABUSHIKI KAISHA, priority 2022, dated 2024)

What was measured:
[1] = tested on: human lung cancer strain NCI-H441; assay type: cell-based
Procedure, shortened: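 Signal came from […] measured per well once the reagent was added. Beforehand, cells were cultured at 37°C and 5% carbon dioxide on a compound series serially diluted in dimethyl sulfoxide.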

HRAS wild-type protein = HRAS wild-type protein (Homo sapiens, UniProt P01112); test: Binding to HRAS by surface plasmon resonance (SPR), KD and KD ratio to KRAS
Procedure, shortened: (§1)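 Each cycle, GDP-bound biotin-Avi RAS was captured (~100–300 RU), compound concentrations were injected low to high for 75 s each at 100 µL/min, then the chip was regenerated. Buffer: HBS pH 7.4, 10 mM MgCl2, 10 µM GDP, 1 mM DTT, 4% DMSO; 30°C. KD from a 1:1 binding model.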

[2] = molecular target: GDP-bound NRAS wild-type protein (Homo sapiens, UniProt P01111); test: Binding to NRAS by surface plasmon resonance (SPR), KD and KD ratio to KRAS
Procedure, shortened: as §1

[3] = ratio of the KD value with respect to HRAS wild-type protein to the KD value with respect to KRAS
[4] = ratio of the KD value with respect to GDP-bound NRAS wild-type protein to the KD value with respect to KRAS
[5] = ratio of KD for HRAS wild-type protein to KD for KRAS
[6] = ratio of KD for GDP-bound NRAS wild-type protein to KD for KRAS

Chain of HRAS wild-type protein (P01112 whole entry): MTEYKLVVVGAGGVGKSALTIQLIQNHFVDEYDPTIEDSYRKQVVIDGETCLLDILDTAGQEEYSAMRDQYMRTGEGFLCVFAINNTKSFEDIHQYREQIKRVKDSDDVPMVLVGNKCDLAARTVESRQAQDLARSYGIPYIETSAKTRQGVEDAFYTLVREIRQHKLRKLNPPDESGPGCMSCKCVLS
Chain of GDP-bound NRAS wild-type protein (P01111 whole entry): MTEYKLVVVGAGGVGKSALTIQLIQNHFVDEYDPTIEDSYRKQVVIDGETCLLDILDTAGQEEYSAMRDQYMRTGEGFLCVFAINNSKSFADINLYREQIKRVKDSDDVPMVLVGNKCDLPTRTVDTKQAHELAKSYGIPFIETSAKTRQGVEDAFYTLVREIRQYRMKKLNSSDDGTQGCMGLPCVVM

SMILES	IC50 [1]	HRAS /KRAS (HRAS wild-type protein; [3])	NRAS /KRAS [2, 4]	HRAS /KRAS (HRAS wild-type protein; ratio of KD value for HRAS wild-type protein to KD value for KRAS (SPR))	NRAS /KRAS ([2]; ratio of KD value for GDP-bound NRAS wild-type protein to KD value for KRAS (SPR))	HRAS /KRAS (HRAS wild-type protein; [5])	NRAS /KRAS [2, 6]
CCO[C@@H]1C[C@H]2C(=O)NC3(CC(C)(C)C3)C(=O)N(C)[C@@H](C(CC)CC)C(=O)N(C)[C@H](C(=O)N(C)C)CC(=O)N(C)[C@@H](CC)C(=O)N[C@@H]([C@@H](C)CC)C(=O)N(C)CC(=O)N(C)[C@H]3C/C=C\CCN(C3=O)[C@@H](Cc3ccc(C)cc3)C(=O)N(C)CC(=O)N[C@@H](CCc3cc(F)c(C(F)(F)F)c(F)c3)C(=O)N2C1 [PP2147]	9.7 nM	B (a compound having 3 or more and less than 10 is denoted as B)	A (a compound having 10 or more and less than 20 is denoted as A)				
CCO[C@@H]1C[C@H]2C(=O)NC3(CC(C)(C)C3)C(=O)N(C)[C@@H](C(CC)CC)C(=O)N(C)[C@H](C(=O)N3CCCC3)CC(=O)N(C)[C@@H](CC)C(=O)N[C@@H]([C@@H](C)CC)C(=O)N(C)CC(=O)N(C)[C@H]3C/C=C\CCN(C3=O)[C@@H](Cc3ccc(C)cc3)C(=O)N(C)CC(=O)N[C@@H](CCc3ccc(C(F)(F)F)c(OC)c3)C(=O)N2C1 [PP2171]	19.6 nM	A (a compound having 10 or more and less than 20 is denoted as A)	A (a compound having 10 or more and less than 20 is denoted as A)				
CC[C@H](C)[C@@H]1NC(=O)[C@H](CC)N(C)C(=O)C[C@@H](C(=O)N(C)C)N(C)C(=O)[C@H](C2CCCC2)N(C)C(=O)C2(CC(C)(C)C2)NC(=O)[C@@H]2C[C@H](C)CN2C(=O)[C@H](CCc2ccc(C(F)(F)F)c(Cl)c2)NC(=O)CN(C)C(=O)[C@H](Cc2ccc(C)cc2)N2CC/C=C\C[C@@H](C2=O)N(C)C(=O)CN(C)C1=O [PP1844]	12.3 nM			B (a compound having 3 or more and less than 10 is denoted as B)	A (a compound having 10 or more and less than 20 is denoted as A)		
CCO[C@@H]1C[C@H]2C(=O)NC3(CC(C)(C)C3)C(=O)N(C)[C@@H](C(CC)CC)C(=O)N(C)[C@H](C(=O)N(C)C)CC(=O)N(C)[C@@H](COC)C(=O)N[C@@H]([C@@H](C)CC)C(=O)N(C)CC(=O)N(C)[C@H]3C/C=C\CCN(C3=O)[C@@H](Cc3ccc(C(F)(F)F)cc3)C(=O)N(C)CC(=O)N[C@@H](CCc3ccc(C(F)(F)F)c(Cl)c3)C(=O)N2C1 [PP2126]	13.4 nM	B (a compound having 3 or more and less than 10 is denoted as B)	A (a compound having 10 or more and less than 20 is denoted as A)				
CCCN1C(=O)[C@H](C2CCCC2)N(C)C(=O)C2(CCC2)NC(=O)[C@@H]2C[C@@H](OCC)CN2C(=O)[C@H](CCc2cc(F)c(C(F)(F)F)c(F)c2)NC(=O)CN(C)C(=O)[C@H](Cc2ccc(C(F)(F)F)cc2)N2CCCC[C@@H](C2=O)N(C)C(=O)CN(C)C(=O)[C@H]([C@@H](C)CC)NC(=O)[C@H](CC(C)C)N(C)C(=O)C[C@H]1C(=O)N1CCOCC1 [PP0649]	30.2 nM	B (a compound having 3 or more and less than 10 is denoted as B)	C (A compound having a KD ratio of 0.1 or more and less than 3 is denoted as C)				
CCO[C@@H]1C[C@H]2C(=O)NC3(CCC3)C(=O)N(C)[C@@H](C3CCCC3)C(=O)N(C)[C@H](C(=O)N(C)C)CC(=O)N(C)[C@@H](CC)C(=O)N[C@@H]([C@@H](C)CC)C(=O)N(C)CC(=O)N(C)[C@H]3CCCCCN(C3=O)[C@@H](Cc3ccc(C(F)(F)F)cc3)C(=O)N(C)CC(=O)N[C@@H](CCc3cc(Cl)c(C(F)(F)F)c(Cl)c3)C(=O)N2C1 [PP0989]	135 nM					B (a compound having 3 or more and less than 10 is denoted as B)	B (a compound having 3 or more and less than 10 is denoted as B)
CCO[C@@H]1C[C@H]2C(=O)NC3(CC(C)(C)C3)C(=O)N(C)[C@@H](C(CC)CC)C(=O)N(C)[C@H](C(=O)N(C)C)CC(=O)N(C)[C@H]3CCCC/C=C/c4ccc(cc4)C[C@@H](C(=O)N(C)CC(=O)N[C@@H](CCc4cc(F)c(C(F)(F)F)c(F)c4)C(=O)N2C1)N1CC/C=C\C[C@@H](C1=O)N(C)C(=O)CN(C)C(=O)[C@H]([C@@H](C)CC)NC3=O [PP3044]	7.1 nM					A (a compound having 10 or more and less than 20 is denoted as A)	AA (a compound having 20 or more is denoted as AA)
